Experimental data: patent US20050260555A1, “Chemosensitivity measurement using caspase activity” (Evotec Analytical Systems GmbH, priority 1999, published 2005)
*1 amine or outer side, *2 acyl side, *3 side chain or, on linkers, in order; H or OH if unused. Where a SMILES comes first, the peptide text is derived from it. Bridges are numbered along the chain shown (N, C = ends). Roman numbers before positions name the chains, in order. [ ]: non-standard residue; d: D form. Actinocin(9to1) = Cc1c2oc3c(C)ccc(C(=O)[*:1])c3nc-2c(C(=O)[*:2])c(N)c1=O; NMeV = CN[C@H](C(=O)O)C(C)C; Sar = CNCC(=O)O

Tests used:
Format in all cases: cell-based
[1] = system: isolated cells from the peripheral blood (PBMNC) of healthy volunteers; assay: Chemosensitivity of PBMNC, caspase activity; conditions: PBMNC of healthy subjects; for concentration by which caspase activity can be induced: average from three independent experiments
Method: (§1) This object is achieved by a method for determining the chemosensitivity of cells towards at least one substance by measuring the apoptosis induced by said at least one substance, wherein the apoptosis is determined from the accumulated caspase activity of a sample comprising cells and a medium by adding said at least one substance to the sample followed by incubation, and measuring the accumulated caspase activity in the sample upon disruption of the cells without previously separating off the cells. In particular, the method according to the invention permits the use of substrates which are hardly cell-permeating or not cell-permeating at all.
(§2) It is essential that the accumulated caspase activity is measured. In this approach, cells, e.g., tumor cells of a patient, are incubated with at least one substance (e.g., cytostatic agent) for an extended period of time so that all effective pharmaceuticals, even the slowly acting, have had enough time to induce apoptosis. Subsequently, for example, a substrate present in a lysis buffer is added, and after the cell lysis has been effected, the total caspase activity formed, i.e., the accumulated activity, of the cellular suspension is measured. […] The conventionally determined (with a washing step) caspase activity increases at the same rate as the accumulated caspase activity, but decreases when the secondary necrosis begins (see FIG. 1). Thus, the principle of measuring the accumulated caspase activity permits to detect the effect of substances on the cells by a single caspase activity measurement. This test has a low need of cells and can be performed as a routine test by laboratory or technical assistants within a short time. Due to the easy automation, the personnel expenditure for performing the test is low. Since the test can be performed on ELISA reading devices, which are available everywhere, no investment in equipment is necessary. Miniaturization is possible to further reduce the consumption of materials. It could be shown that cells can be kept in culture for some days in less than 10 μl of medium. The reduction of the number of cells per sample compartment from 100 to 1000 per test enables highly parallel analyses of samples with extremely few cells from patients, e.g., from fine needle biopsies. The low need of cells also permits the high throughput screening (HTS) of unknown substances for anti-tumor activity.
For establishing the test for peripheral blood or bone marrow, isolated cells from the peripheral blood (PBMNC) of healthy volunteers were tested first, taking care that acute infections, as frequently encountered in the fall/winter season, could be excluded. FIGS. 5 and 6 illustrate the results of the studies with two cytostatic agents.
As compared to tested leukemia cell lines, the PBMNCs respond later to daunorubicin.

HL60 cells = assay: Chemosensitivity of HL60 cells, accumulated caspase activity; conditions: promyeloic HL60 cells
Method: as §1
as §2, with “The reduction of the number of cells per sample compartment from 100 to 1000 per test enables highly parallel analyses of samples with extremely few cells from patients, e.g., from fine needle biopsies. The low need of cells also permits the high throughput screening (HTS) of unknown substances for anti-tumor activity.” left out
The caspase activity of 250 000 Jurkat cells in 100 μl of medium was determined after different incubation times with 1 μg/ml actinomycin D both conventionally and according to the method of accumulated caspase activity according to the invention. […] The accumulated caspase activity was determined by mixing 100 μl of the cells incubated with actinomycin D, directly in suspension, with 100 μl of 2× lysis buffer. […] At room temperature, the release of fluorescent aminocoumarin by caspase was monitored every 5 min over a period of 2 h. From the linear increase of the signal, the slope was calculated as a measure of caspase activity. […]

U937 cells = assay: Chemosensitivity of U937 cells, accumulated caspase activity; conditions: cell line U937, FIG. 3; for effectiveness (apoptosis induction) as concentration increases: average from three independent experiments
Method: as §1, §2
The caspase activity of 250 000 Jurkat cells in 100 μl of medium was determined after different incubation times with 1 μg/ml actinomycin D both conventionally and according to the method of accumulated caspase activity according to the invention. Thus, 100 μl of Jurkat cells (2.5×10^6/ml) was incubated in the presence of actinomycin D at 5% CO2 and 37° C. in RPMI medium with 10% FCS and Pen/Strep. After the incubation, the cells were centrifuged by a conventional method and washed with PBS. The pellet was resuspended in 200 μl of lysis buffer, incubated on ice for 10 min and frozen at −20° C. The accumulated caspase activity was determined by mixing 100 μl of the cells incubated with actinomycin D, directly in suspension, with 100 μl of 2× lysis buffer. The lysate was also frozen at −20° C. All lysates were simultaneously thawed, and aminocoumarin-DEVD was added. At room temperature, the release of fluorescent aminocoumarin by caspase was monitored every 5 min over a period of 2 h. From the linear increase of the signal, the slope was calculated as a measure of caspase activity. The spontaneous caspase activities of the Jurkat cells in the absence of actinomycin D, not shown in the Figure, increase with time, but remain lower than 4 min^−1.
The chemosensitivities of U937 and HL60 cells towards the cytostatic agents indicated in FIGS. 3 and 4 were tested in the stated concentration ranges.
The effect of four cytostatic agents on the cell line U937 was tested. Each data point represents the average from three independent experiments.

SMILES | plateau (unchanging maximum caspase activity) [1] | concentration by which caspase activity can be induced [1] [ng/mL] | maximum inducible caspase activity reached at the highest concentration measured (HL60 cells) | maximum inducible caspase activity (U937 cells) | effectiveness (apoptosis induction) as concentration increases (U937 cells) | response compared to tested leukemia cell lines [1] | induced caspase activities (comparison between agents) (HL60 cells) | concentration at maximum in caspase activity (HL60 cells; apoptosis signal decreases at higher concentrations)
Nc1ccn([C@@H]2O[C@H](CO)[C@@H](O)[C@@H]2O)c(=O)n1 [Ara-C, cytosine arabinoside (Ara-C)] | not reached for any of the tested PBMNCs | > 200 | appears not yet to have reached the maximum caspase activity | relatively low | also increases | – | – | –
COc1cccc2c1C(=O)c1c(O)c3c(c(O)c1C2=O)C[C@@](O)(C(C)=O)C[C@@H]3O[C@H]1C[C@H](N)[C@H](O)[C@H](C)O1 [daunorubicin] | not reached for the subjects NP1 and NP5 to NP8, and only roughly so for the subjects NP2 to NP4 | > 50 | – | significantly higher | also increases | respond later | higher caspase activities than Ara-C and prednisolone | –
C[C@]12C=CC(=O)C=C1CC[C@@H]1[C@@H]2[C@@H](O)C[C@@]2(C)[C@H]1CC[C@]2(O)C(=O)CO [prednisolone] | – | – | – | – | no or but a slight apoptosis induction | – | – | about 700 ng/ml
Cc1c2oc3c(C)ccc(C(=O)N[C@@H]4C(=O)N[C@H](C(C)C)C(=O)N5CCC[C@H]5C(=O)N(C)CC(=O)N(C)[C@@H](C(C)C)C(=O)O[C@@H]4C)c3nc-2c(C(=O)N[C@@H]2C(=O)N[C@H](C(C)C)C(=O)N3CCC[C@H]3C(=O)N(C)CC(=O)N(C)[C@@H](C(C)C)C(=O)O[C@@H]2C)c(N)c1=O [actinomycin D] (I: T[dV]P[Sar][NMeV] / II: T[dV]P[Sar][NMeV]; ester I:1-I:C, II:1-II:C; linker I:N-II:N via Actinocin(9to1)) | – | – | – | highest | also increases | – | higher caspase activities than Ara-C and prednisolone | –
